Source: PMC6067752, “Investigations on the mode of action of gephyronic acid, an inhibitor of eukaryotic protein translation from myxobacteria” (PLoS ONE, 2018)

Assays:
[1] = biological target: T1, eukaryotic initiation factor 2 subunit alpha (eIF2α) (Homo sapiens, UniProt P05198); experiment: pull-down with streptavidin beads, western blot; type: biochemical; details: KB-3-1 cell lysate; native protein; 4 °C 1 h with compound; labelled compound; indirect binding evidence
T1 construct: gene EIF2S1; native endogenous protein in KB-3-1 cell lysate (M-PER), 36 kDa band; alpha subunit of the heterotrimeric eIF2 complex; detected by western blot

PC-3 = experiment: cells; design: species or system transformed mammalian cell lines; MTT assay (formazan absorbance at 595 nm), anti-proliferative activity on transformed cell lines; details: Homo sapiens, PC-3; read-out: Gephyronic acid IC50
MCF-7 = experiment: cells; design: species or system transformed mammalian cell lines; MTT assay (formazan absorbance at 595 nm), anti-proliferative activity on transformed cell lines; details: Homo sapiens, MCF7; read-out: Gephyronic acid IC50
KB-3-1 = experiment: cells; design: species or system transformed mammalian cell lines; MTT assay (formazan absorbance at 595 nm), anti-proliferative activity on transformed cell lines; details: Homo sapiens, KB 3-1; read-out: Gephyronic acid IC50
A-549 = experiment: cells; design: species or system transformed mammalian cell lines; MTT assay (formazan absorbance at 595 nm), anti-proliferative activity on transformed cell lines; details: Homo sapiens, A549; read-out: Gephyronic acid IC50
L-929 = experiment: cells; design: species or system transformed mammalian cell lines; MTT assay (formazan absorbance at 595 nm), anti-proliferative activity on transformed cell lines; details: Mus musculus, L929; read-out: Gephyronic acid IC50
[2] = biological target: T1, eukaryotic initiation factor 2 subunit alpha (eIF2α); experiment: DARTS (pronase protection, western blot); type: biochemical; details: KB-3-1 cell lysate; native protein; 2 h at room temperature with compound, pronase 30 min at 37 °C; indirect binding evidence

T1 sequence (P05198 whole entry): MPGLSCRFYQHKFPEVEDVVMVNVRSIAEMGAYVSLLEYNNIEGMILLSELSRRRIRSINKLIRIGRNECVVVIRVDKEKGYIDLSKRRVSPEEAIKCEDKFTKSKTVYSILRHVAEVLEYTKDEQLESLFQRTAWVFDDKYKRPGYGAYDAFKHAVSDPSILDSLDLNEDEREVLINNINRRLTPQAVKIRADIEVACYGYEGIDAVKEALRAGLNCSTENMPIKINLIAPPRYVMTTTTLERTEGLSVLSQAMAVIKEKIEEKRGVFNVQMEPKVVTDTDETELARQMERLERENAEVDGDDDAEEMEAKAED

| Compound | pull-down with streptavidin beads, western blot [1] | IC50 (PC-3) | IC50 (MCF-7) | IC50 (KB-3-1) | IC50 (A-549) | IC50 (L-929) | DARTS (pronase protection, western blot) [2] |
| --- | --- | --- | --- | --- | --- | --- | --- |
| COC(=O)C[C@H](OC(=O)CCCC[C@@H]1SC[C@@H]2NC(=O)N[C@@H]21)[C@@H](C)[C@H](OC)C(C)(C)C(=O)[C@@H](C)C[C@H](C)[C@H](O)[C@]1(C)O[C@@H]1[C@@H](C)C=C(C)C [4b, biotinylated GA methyl ester 4b] | eIF2α was clearly present in preparations with biotinylated GA ester |  |  |  |  |  |  |
| CO[C@@H]([C@H](C)[C@@H](O)CC(=O)O)C(C)(C)C(=O)[C@@H](C)C[C@H](C)[C@H](O)[C@@]1(C)O[C@@H]1[C@@H](C)C=C(C)C [compound 1, gephyronic acid] |  | 6 nM | 14 nM | 14 nM | 8 nM | 100 nM | GA binding protected the initiation factor eIF2α in a dose dependent manner. |
